Source: article PMC10126473 (Frontiers in Pharmacology, 2023)

Assay: Mouse PK and tissue distribution study (non-compartmental analysis)
Settings: mice; for Tmax / half-life: male, C57BL/6, mouse, in vivo, po; for Tmax: Tmax Obs; for half-life: t1/2 Obs
Experimental: The in-life study (Animal Study Protocol Number: NIH ORS-51) was conducted at the NIH Animal Facility by the Division of Veterinary Resources (DVR, Bethesda, MD). In this study, 25–35 g male C57BL/6 mice (Charles River Laboratories, Frederick, MD) were used. For the IV groups, 66 mice (33 mice per dosing group, 3 mice per timepoint) were used for a single bolus IV dose of 3 or 10 mg/kg of PDN via tail vein injection. […] The IV and PO doses were selected to obtain a complete concentration profile in plasma and tissues, based on a preliminary study. Animals were not fasted in this study. […] All dosing solutions were freshly prepared on the day of dosing. At designated time points, blood samples were collected, and mice were euthanized with CO2 in accordance with NIH ARAC Guidelines after blood collection. The death was ensured by cervical dislocation or transthoracic puncture. Lung, liver, adipose, brain, heart, small intestine, kidney, skeletal muscle, and spleen samples were obtained from mice. […] Tissue samples were rinsed with cold saline, dried on filtrate paper, weighed, and snap frozen by placing into dry ice after collection. All samples were stored at −80°C until the analysis. All blood samples were collected in K2EDTA tubes and centrifuged at 3000 g for 10 min at 4°C to obtain plasma. Plasma samples were transferred to tubes preloaded with NaF (final concentration at 5 mM in 200 µL plasma) and stored at −80°C until analysis.
For fat tissue, an additional 3-fold volume of acetonitrile was added to the water homogenate and was vortexed in a shaker for another 30 min.
A 10 μ aliquot of samples, blank controls (blank plasma or tissue homogenates), quality controls (QC), and standards were added into 200 μ acetonitrile solution with 100 ng/mL tolbutamide (internal standard, IS). All samples were then thoroughly shaken for 5 min to precipitate proteins. The samples were centrifuged at 3000 rpm and 4°C for 30 min. The supernatant was injected for UPLC-MS/MS analysis.
The mobile phase consisted of 0.1% formic acid in water (A) and 0.1% formic acid in acetonitrile (B), the flow rate was 600 μL/min. […] All analyses were carried out using a Waters Acquity I-Class UPLC interfaced with a Waters Xevo TQ-S mass spectrometer. The mass spectrometer multiple reaction monitoring (MRM) experiment was operated with an ESI source at negative mode with spray voltage of 1 kV, and temperature of 600°C. Both Q1 and Q3 were set at unit resolution. […] The correlation coefficients of the calibration curves were all greater than 0.99. […] The linear range, precision and accuracy of QCs in various tissues and plasma are shown in Supplementary Table S1 and Supplementary Table S2.
The area under the concentration vs. time curve (AUC) was calculated using the linear trapezoidal method. The terminal rate constant (λ) was obtained from the slope of at least three data points of the apparent terminal phase of the log linear concentration vs. time curve. AUC0–∞ was estimated as the sum of the AUC0–t (where t is the time of the last measurable concentration) and Ct/λ. […] Bioavailability (F) was calculated using ratios of dose-normalized AUC of PO and IV administration.

[1] = 10 mg/kg, PO 10 mg/kg PDN, brain
[2] = 10 mg/kg, PO 10 mg/kg PDN, heart
[3] = 10 mg/kg, PO 10 mg/kg PDN, intestine
[4] = 10 mg/kg, PO 10 mg/kg PDN, kidney
[5] = 10 mg/kg, PO 10 mg/kg PDN, liver
[6] = 10 mg/kg, PO 10 mg/kg PDN, lung
[7] = 10 mg/kg, PO 10 mg/kg PDN, muscle
[8] = 10 mg/kg, PO 10 mg/kg PDN, plasma
[9] = 10 mg/kg, PO 10 mg/kg PDN, spleen

O=C(Nc1ccc([N+](=O)[O-])cc1Cl)c1cc(Cl)ccc1OC(=O)N1CCNCC1 [PDN]
Tmax [1]: 1.5 h
Tmax [2]: 1.5 h
Tmax [3]: 0.167 h
Tmax [4]: 1.5 h
Tmax [5]: 1.5 h
Tmax [6]: 1.5 h
Tmax [7]: 1.5 h
Tmax [8]: 1.5 h
Tmax [9]: 1.5 h
half-life (10 mg/kg, PO 10 mg/kg PDN, adipose): 3.48 h
half-life [1]: 2.45 h
half-life [2]: 2.16 h
half-life [3]: 1.79 h
half-life [4]: 2.99 h
half-life [5]: 2.36 h
half-life [6]: 3.29 h
half-life [7]: 2.83 h
half-life [8]: ~3.2 h
half-life [9]: 3.16 h
AUC0-∞ Obs (IV 3 mg/kg PDN, adipose): 990 (169) h*ng/g
AUC0-∞ Obs (IV 3 mg/kg PDN, brain): 1024 (124) h*ng/g
AUC0-∞ Obs (IV 3 mg/kg PDN, heart): 5676 (481) h*ng/g
AUC0-∞ Obs (IV 3 mg/kg PDN, intestine): 3222 (749) h*ng/g
AUC0-∞ Obs (IV 3 mg/kg PDN, kidney): 9833 (1080) h*ng/g
AUC0-∞ Obs (IV 3 mg/kg PDN, lung): 53071 (4993) h*ng/g
AUC0-∞ Obs (IV 3 mg/kg PDN, muscle): 1828 (221) h*ng/g
AUC0-∞ Obs (IV 3 mg/kg PDN, spleen): 16808 (1242) h*ng/g
AUC0-∞ Obs (IV 10 mg/kg PDN, brain): 5622 (1331) h*ng/g
AUC0-∞ Obs (IV 10 mg/kg PDN, heart): 31647 (6073) h*ng/g
AUC0-∞ Obs (IV 10 mg/kg PDN, intestine): 14586 (1295) h*ng/g
AUC0-∞ Obs (IV 10 mg/kg PDN, kidney): 62371 (6713) h*ng/g
AUC0-∞ Obs (IV 10 mg/kg PDN, liver): 883 (323) h*ng/g
AUC0-∞ Obs (IV 10 mg/kg PDN, lung): 173216 (21722) h*ng/g
AUC0-∞ Obs (IV 10 mg/kg PDN, muscle): 10301 (2999) h*ng/g
AUC0-∞ Obs (IV 10 mg/kg PDN, spleen): 63505 (10129) h*ng/g
AUC0-∞ Obs (PO 10 mg/kg PDN, adipose): 2788 (299) h*ng/g
AUC0-∞ Obs (PO 10 mg/kg PDN, brain): 2741 (488) h*ng/g
AUC0-∞ Obs (PO 10 mg/kg PDN, heart): 10680 (1787) h*ng/g
AUC0-∞ Obs (PO 10 mg/kg PDN, intestine): 37739 (6003) h*ng/g
AUC0-∞ Obs (PO 10 mg/kg PDN, kidney): 40372 (8592) h*ng/g
AUC0-∞ Obs (PO 10 mg/kg PDN, liver): 591 (176) h*ng/g
AUC0-∞ Obs (PO 10 mg/kg PDN, lung): 123875 (23366) h*ng/g
AUC0-∞ Obs (PO 10 mg/kg PDN, muscle): 4005 (814) h*ng/g
AUC0-∞ Obs (PO 10 mg/kg PDN, spleen): 45737 (9727) h*ng/g
F (bioavailability) Obs (PO 10 mg/kg PDN, 10 mg/kg): 85.8%
